Assay results published in US20240327397A1, “Pesticidally Active Fused Bicyclic Heteroaromatic Compounds” (SYNGENTA CROP PROTECTION AG, priority 2021, published 2024).

Experiments:
Format in all cases: in vivo
[1] = tested on: Spodoptera littoralis (Eqyptian Cotton Leaf Worm); test: Example B4: Spodoptera littoralis, sprayed cotton leaf discs, L1 larvae; conditions: foliar, 72 h, application rate 200 ppm, 3 days after infestation, versus untreated, read-out: control (at least one of mortality, anti-feedant effect, growth inhibition)
Method: Example B4: Spodoptera littoralis (Eqyptian Cotton Leaf Worm)
Cotton leaf discs were placed onto agar in 24-well microtiter plates and sprayed with aqueous test solutions prepared from 10'000 ppm DMSO stock solutions. After drying the leaf discs were infested with five L1 larvae. The samples were assessed for mortality, anti-feeding effect, and growth inhibition in comparison to untreated samples 3 days after infestation. Control of Spodoptera littoralis by a test sample is given when at least one of the categories mortality, anti-feedant effect, and growth inhibition is higher than the untreated sample.

[2] = tested on: Chilo suppressalis (Striped Rice Stemborer); test: Example B1: Chilo suppressalis, artificial diet in 24-well plates, L2 larvae; conditions: 144 h, application rate 200 ppm, 6 days after infestation, versus untreated, read-out: control (at least one of mortality, anti-feedant effect, growth inhibition)
Method: Example B1: Chilo suppressalis (Striped Rice Stemborer)
24-well microtiter plates with artificial diet were treated with aqueous test solutions prepared from 10'000 ppm DMSO stock solutions by pipetting. After drying, the plates were infested with L2 larvae (6-8 per well). The samples were assessed for mortality, anti-feeding effect, and growth inhibition in comparison to untreated samples 6 days after infestation. Control of Chilo suppressalis by a test sample is given when at least one of the categories mortality, anti-feedant effect, and growth inhibition is higher than the untreated sample.

[3] = tested on: Myzus persicae (Green Peach Aphid); test: Example B7: Myzus persicae, intrinsic activity, sucrose solution under Parafilm; conditions: 120 h, test rate 12 ppm, 5 days after infestation
Excerpt: Example B7: Myzus persicae (Green Peach Aphid). Intrinsic Activity
Test compounds prepared from 10'000 ppm DMSO stock solutions were applied by pipette into 24-well microtiter plates and mixed with sucrose solution. The plates were closed with a stretched Parafilm. A plastic stencil with 24 holes was placed onto the plate and infested pea seedlings were placed directly on the Parafilm. The infested plate was closed with a gel blotting paper and another plastic stencil and then turned upside down. The samples were assessed for mortality 5 days after infestation.

[4] = tested on: Frankliniella occidentalis (Western Flower Thrips); test: Example B5: Frankliniella occidentalis, feeding/contact activity, sunflower leaf discs; conditions: foliar, 168 h, application rate 200 ppm, population of mixed ages, 7 days after infestation
Method: Example B5: Frankliniella occidentalis (Western Flower Thrips). Feedinq/Contact Activity
Sunflower leaf discs were placed on agar in 24-well microtiter plates and sprayed with aqueous test solutions prepared from 10'000 DMSO stock solutions. After drying the leaf discs were infested with a Frankliniella population of mixed ages. The samples were assessed for mortality 7 days after infestation.

[5] = tested on: Diabrotica Balteata (Corn Root Worm); test: Example B2: Diabrotica balteata, sprayed maize sprouts on agar, L2 larvae; conditions: 96 h, application rate 200 ppm, 4 days after infestation, versus untreated, read-out: effect in at least one of the two categories (mortality or growth inhibition)
Method: Example B2: Diabrotica Balteata (Corn Root Worm)
Maize sprouts placed onto an agar layer in 24-well microtiter plates were treated with aqueous test solutions prepared from 10'000 ppm DMSO stock solutions by spraying. After drying, the plates were infested with L2 larvae (6 to 10 per well). The samples were assessed for mortality and growth inhibition in comparison to untreated samples 4 days after infestation.

[6] = tested on: Plutella xylostella (Diamond Back Moth); test: Example B3: Plutella xylostella, artificial diet in 24-well plates, eggs; conditions: 192 h, application rate 200 ppm, 8 days after infestation, versus untreated, read-out: effect in at least one of the two categories (mortality or growth inhibition)
Method: Example B3: Plutella xylostella (Diamond Back Moth)
24-well microtiter plates with artificial diet were treated with aqueous test solutions prepared from 10'000 ppm DMSO stock solutions by pipetting. After drying, Plutella eggs were pipetted through a plastic stencil onto a gel blotting paper and the plate was closed with it. The samples were assessed for mortality and growth inhibition in comparison to untreated samples 8 days after infestation.

[7] = tested on: Myzus persicae (Green Peach Aphid); test: Example B6: Myzus persicae, feeding/contact activity, sunflower leaf discs; conditions: foliar, 144 h, application rate 200 ppm, population of mixed ages, 6 days after infestation
Method: Example B6: Myzus persicae (Green Peach Aphid). Feedinq/Contact Activity
Sunflower leaf discs were placed onto agar in a 24-well microtiter plate and sprayed with aqueous test solutions prepared from 10'000 ppm DMSO stock solutions. After drying, the leaf discs were infested with an aphid population of mixed ages. The samples were assessed for mortality 6 days after infestation.

C[C@H](NC1=NS(C)(=O)=Nc2c(Br)cc(Br)cc21)c1ncnn1-c1ncccn1 (stereo partly drawn) [P1, 8,10-dibromo-3-methyl-3-oxo-N-[(1S)-1-(2-pyrimidin-2-yl-1,2,4-triazol-3-yl)ethyl]-3λ^6-thia-2,4-diazabicyclo[4.4.0]deca-1(6),2,4,7,9-pentaen-5-amine]
≥ 80%: percent control (mortality, anti-feedant effect or growth inhibition) at 200 ppm [1] | percent control (mortality, anti-feedant effect or growth inhibition) at 200 ppm [2] | mortality at 12 ppm [3] | mortality at 200 ppm [4] | percent effect (mortality or growth inhibition) at 200 ppm [5] | percent effect (mortality or growth inhibition) at 200 ppm [6]

C[C@H](NC1=NS(C)(=O)=Nc2c(Br)cc(Br)cc21)c1nccnc1-c1cnccn1 (stereo partly drawn) [P10, 8,10-dibromo-3-methyl-3-oxo-N-[(1S)-1-(3-pyrazin-2-ylpyrazin-2-yl)ethyl]-3λ^6-thia-2,4-diazabicyclo[4.4.0]deca-1(6),2,4,7,9-pentaen-5-amine]
≥ 80%: percent control (mortality, anti-feedant effect or growth inhibition) at 200 ppm [1] | percent control (mortality, anti-feedant effect or growth inhibition) at 200 ppm [2] | mortality at 12 ppm [3] | mortality at 200 ppm [4] | mortality at 200 ppm [7] | percent effect (mortality or growth inhibition) at 200 ppm [5] | percent effect (mortality or growth inhibition) at 200 ppm [6]
